The text below walks through data of PMC4414177, “A novel orally active water-soluble inhibitor of human glutathione transferase exerts a potent and selective antitumor activity against human melanoma xenografts” (Oncotarget, 2015).

In brackets after ≈: the same amount, converted by molar mass.

Series [1] in a line: Solubility limits in aqueous buffers. Type of series: physicochemical. As to conditions: thermodynamic from solid. From the text:
The solutions obtained were separated from any undissolved matter by centrifugation at 15,000 g and evaluated for drug concentration by recording compound absorbance at 425 nm, using molar extinction coefficients calculated at the same wavelength with diluted standard solutions, prepared in the same matrices.

Series [2] is described as follows: Spontaneous reactivity with GSH (UV-visible spectra). The format is physicochemical. As to conditions: 40 μM compound, 1 mM GSH, 0.1 M potassium phosphate buffer pH 6.5, 25°C, within 1 h. On the procedure: The spontaneous reactivity of the NBDs with GSH was determined at 25°C by recording the UV-visible spectrum of each compound (40 μM) incubated with 1 mM GSH, in 0.1 M potassium phosphate buffer, pH 6.5, at different time points.

Series [3] deals with T1, GSTP1-1 (Homo sapiens, UniProt P09211).
T1 construct: made in house; host or cells: Escherichia coli
In words: Sigma complex formation in the GSTP1-1 active site. Type of series: biochemical. As to conditions: 40 μM compound, 40 μM GSTP1-1, 1 mM GSH, pH 6.5, 25°C. Here is the method: (§1) Human GSTM2-2, GSTP1-1, JNK1a2 and TRAF2 were expressed in Escherichia coli and purified as previously described; protein concentration was determined using the Lowry colorimetric assay. Unless specified otherwise, all chemicals were purchased from Sigma-Aldrich S.r.l. (Milan, Italy).
The ability of GSTP1-1 to stabilize the intermediate σ-complex formed between GSH and the compounds, was evaluated by recording the spectrum of each molecule (40 μM), in 0.1 M potassium phosphate buffer, pH 6.5, before and after the addition of a stoichiometric amount of GSTP1-1 and 1 mM GSH.

In series [4] the target is T1, GSTP1-1. In words: Inhibition of GSTP1-1 conjugation activity. The format is biochemical. Here is the method: as §1
GST activity was determined spectrophotometrically at 340 nm (ε = 9,600 M^−1 cm^−1), as previously reported. […] Fifty percent inhibitory concentration (IC50) values were calculated by fitting the data to Equation 1, where ν is the percentage of the saturated binding sites; [P]t is the total GST concentration and [L]t is the total inhibitor concentration, assuming a 1:1 interaction stoichiometry between the inhibitor and one GST subunit, as well as that the binding sites are equal and independent.

Series [5] has as its target T2, GSTM2-2 (Homo sapiens, UniProt P28161).
T2 construct: made in house; host or cells: Escherichia coli
T2 sequence (P28161 1-218): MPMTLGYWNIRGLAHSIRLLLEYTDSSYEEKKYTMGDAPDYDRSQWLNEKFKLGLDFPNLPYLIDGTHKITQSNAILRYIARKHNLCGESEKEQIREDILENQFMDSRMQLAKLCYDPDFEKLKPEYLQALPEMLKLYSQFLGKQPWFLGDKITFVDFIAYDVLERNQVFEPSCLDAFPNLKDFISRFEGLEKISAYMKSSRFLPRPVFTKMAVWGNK
In words: Inhibition of GSTM2-2 conjugation activity. As to conditions: GSTM2-2 5 nM. Type of series: biochemical. Here is the method: as §1
GST activity was determined spectrophotometrically at 340 nm (ε = 9,600 M^−1 cm^−1), as previously reported. Inhibition experiments were performed by measuring GSTP1-1 (20 nM) or GSTM2-2 (5 nM) activities in the presence of various amounts of the selected NBD derivative (from 0.1 to 20 μM with GSTP1-1, and from 0.005 and 1 μM with GSTM2-2). Fifty percent inhibitory concentration (IC50) values were calculated by fitting the data to Equation 1, where ν is the percentage of the saturated binding sites; [P]t is the total GST concentration and [L]t is the total inhibitor concentration, assuming a 1:1 interaction stoichiometry between the inhibitor and one GST subunit, as well as that the binding sites are equal and independent.

The subject of series [6] is A375. Description: Cell growth inhibition, SRB assay. Type of series: cell-based. As to conditions: Homo sapiens, A-375, A375, 48 h. On the procedure: (§2) The IC50 values for each compound were then evaluated by the SRB assay.
For series [7], the system named is G-361. In words: Cell growth inhibition, SRB assay. Type of series: cell-based. Conditions: Homo sapiens, G-361, 48 h. Here is the method: as §2
In general terms: The SRB assay estimates cell density from bound dye.

Series [8] has as its system IST-MEL-1. Description: Cell growth inhibition, SRB assay. The format is cell-based. As to conditions: Homo sapiens, IST-MEL-1, 48 h. On the procedure: as §2
Series [9] deals with MALME-3M. In words: Cell growth inhibition, SRB assay. Type of series: cell-based. Conditions: Homo sapiens, 48 h. On the procedure: as §2
Series [10] deals with SK23-MEL. In words: Cell growth inhibition, SRB assay. The format is cell-based. Conditions: Homo sapiens, 48 h. On the procedure:
as §2

Series [11] relates to A375 cells. Description: Cell cycle analysis (PI, flow cytometry). Type of series: cell-based, human. As to conditions: A375, pretreatment with SP600125 20 μM, 24 hrs exposure to MC3181. On the procedure:
A375 and SK23-MEL cells, were fixed with 70% ethanol overnight, stained with PI staining buffer ([…] and 1% Triton X-100) and analyzed by a FACSCalibur (BD Bioscence, San Jose, CA, USA). The percentage of early apoptotic, late apoptotic, and necrotic cells was determined by simultaneous staining of cells with PI (2 μg/ml) and Annexin V-FITC (0.5 μg/ml) (Sigma Aldrich), according to manufacturer's protocol. Flow cytometric data were analyzed by the FlowJo 8.8.6 software (Tree Stare, Inc, Ashland, OR, USA).
(In general: A flow cytometer gives signals particle by particle.)

For series [12], the system named is A375 cells. In words: Caspase-3 activity in cell lysates. The format is cell-based, human. As to conditions: A375, pretreatment with SP600125 20 μM, 24 hrs exposure to MC3181. Here is the method: Apoptosis was confirmed by measuring caspase-3 activity, at 25°C, in total cell lysates, using the model fluorescent peptide substrate N-Acetyl-Asp-Glu-Val-Asp-7-amido-4-trifluoromethylcoumarin (Ac-DEVD-AFC). […] Caspase activity was expressed as change in fluorescence per min, per 10^6 cells.

Series [13] has as its system A375 human melanoma. In words: A375 fragment xenograft model, antitumor efficacy. The format is in vivo, mice. As to conditions: MC3181 i.v. 8mg/kg/d q1dx5 three weeks. On the procedure: With regard to the in vivo fragment tumor model, A375 cells were injected (1×10^7) subcutaneously (s.c.) into the right flank of an athymic Nude-Foxn1nu female mouse, and the established primary tumor was then removed and cut into fragments (2–3 mm diameter) and implanted s.c. into recipient mice. Animals were randomly divided in groups of 7 mice and treatment was initiated when a tumor volume of 0.12 ± 0.01 cm^3 (mean ± SEM) was reached.
The reference drug temozolomide, dissolved in DMSO/PBS 1:1 to a final concentration of 10 mg/ml, was administered i.p. q1dx5 at a dose of 100mg/kg/day.
Primary tumor growth was determined for all animals by caliper measurement (minor and major axis length), three times per week, until they were sacrificed. Primary tumor volume was determined using the following equation: V (cm^3)=(α^2×β)/2 (Eq. 3)
The efficacy of the treatment was also analyzed by calculation of the percentage of Increase in Life Span (% ILS), since this analysis gives an evidence of clinical potency. Survival endpoint for each animal was fixed at the day when tumor volume reached 1.0 cm^3 (A375) or 0.4 cm^3 (SK23-MEL and G-361), and data were used to plot the relative Kaplan-Meier curves. Treatment efficacy was then evaluated by comparing the Median Survival Time (MST) of treated group with the MST of control group, and expressed as percentage of ILS: % ILS=[100×(MSTtreated group)/(MSTcontrol group)]−100 (Eq. 4)
Treatment was considered effective when % ILS > 20%.

In series [14] the test system is mice bearing human tumor xenografts. Description: Toxicity in tumor-bearing mice (net BW variation, macroscopic autopsy). Conditions: during treatment, MC3181 8 mg/kg/day, TMZ 100 mg/kg/day i.p. The format is in vivo. Here is the method:
Toxicity was also evaluated in tumor-bearing mice on the basis of macroscopic autopsy findings, mainly in terms of alteration to the size and color of vital organs, and net BW reduction. The percentage of net BW variation, between the first day of treatment and sacrifice day (or day of interest), was evaluated according to the following equation: % net BW variation =net BW at observation day −net BW at first day of treatment/net BW at first day of treatment ×100 (Eq. 2)

T1 sequence (P09211 2-210 limits assumed): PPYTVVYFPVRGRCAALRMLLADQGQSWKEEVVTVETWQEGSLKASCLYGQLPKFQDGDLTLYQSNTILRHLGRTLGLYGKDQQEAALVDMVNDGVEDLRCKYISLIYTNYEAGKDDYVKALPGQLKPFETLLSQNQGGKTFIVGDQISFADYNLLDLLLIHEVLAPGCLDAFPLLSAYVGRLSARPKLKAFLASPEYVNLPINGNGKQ

In the case of `O=[N+]([O-])c1ccc(SCCOCCO)c2nonc12` [MC3165, 2-(2-((7-nitrobenzo[c][1,2,5]oxadiazol-4-yl)thio)ethoxy)ethan-1-ol], the solubility in series [1] (potassium phosphate buffer, pH 7.4, 0.1 M K-Phosphate buffer) came to 2000 µM (≈ 571 µg/mL); in series [1] (sodium acetate buffer, pH 2.0, 0.1 M Na-Acetate Buffer), 2000 µM (≈ 571 µg/mL); in series [1] (sodium acetate buffer, pH 5.0, 0.1 M Na-Acetate Buffer) it was 1900 µM (≈ 542 µg/mL). In addition, in series [2], the “decrease of the absorbance value at 430 nm after addition of excess GSH” value is recorded as “less than 15%”. Further, the “stability of the σ-complex, rank order” value in [3] is recorded as “NBDHEX > MC3181 > MC3165”. In [4], the “Selectivity Index IC50GSTP1-1/IC50GSTM2-2” value stood at 78. The half-inhibitory concentration (IC50) worked out at 4000 ± 200 nM in series [4] (GSTP1-1 20 nM) and 51 ± 8 nM in series [5].

Consider `O=[N+]([O-])c1ccc(SCCCCCCO)c2nonc12` [NBDHEX, 6-((7-nitrobenzo[c][1,2,5]oxadiazol-4-yl)thio)hexan-1-ol, reference compound], for which the IC50 in series [5] was at most 10 nM; in series [6], 1450 ± 140 nM; in series [7] it was 550 ± 30 nM; in series [8], 1420 ± 50 nM; in [9] it was 1800 ± 120 nM; in series [10] it was 1190 ± 90 nM.

On to `Oc1c2ccccc2c2c3c(cccc13)N=N2` [SP600125, reference compound], for which the “reduction of the MC3181-elicited increase in the number of cells in Sub-G1 phase” value in series [11] is listed as “about 40%”. Moreover, in series [12], the “reduction of the MC3181-elicited increase of caspase-3 activity” value is given as “about 50%”.

In the case of `Cn1nnc2c(C(N)=O)ncn2c1=O` [TMZ, temozolomide, reference compound], the “%ILS” value in series [13] (TMZ i.p. 100 mg/kg/d q1dx5) amounted to 35%. Besides, the tumor growth entry in [13] (TMZ i.p. 100 mg/kg/d q1dx5, from day 13 onward, P < 0.05) is “significantly delayed tumor growth”. For the same compound, the “decrease in BW” value in [14] is around 15%.

The solubility is the dissolved amount per volume that the medium holds. Read a low solubility as a poorly soluble substance. Broadly, the IC50 is the midpoint of a concentration-inhibition curve. Lower therefore signals inhibition by little substance.
